Experimental data from ChEMBL document CHEMBL1158514, “Molecular design of small organic molecules based on structural information for a conformationally constrained peptide that binds to G-CSF receptor” (Bioorg Med Chem Lett, 2010).

Target: T1, Granulocyte colony-stimulating factor receptor (Homo sapiens, UniProt Q99062)
T1 sequence (Q99062 whole entry): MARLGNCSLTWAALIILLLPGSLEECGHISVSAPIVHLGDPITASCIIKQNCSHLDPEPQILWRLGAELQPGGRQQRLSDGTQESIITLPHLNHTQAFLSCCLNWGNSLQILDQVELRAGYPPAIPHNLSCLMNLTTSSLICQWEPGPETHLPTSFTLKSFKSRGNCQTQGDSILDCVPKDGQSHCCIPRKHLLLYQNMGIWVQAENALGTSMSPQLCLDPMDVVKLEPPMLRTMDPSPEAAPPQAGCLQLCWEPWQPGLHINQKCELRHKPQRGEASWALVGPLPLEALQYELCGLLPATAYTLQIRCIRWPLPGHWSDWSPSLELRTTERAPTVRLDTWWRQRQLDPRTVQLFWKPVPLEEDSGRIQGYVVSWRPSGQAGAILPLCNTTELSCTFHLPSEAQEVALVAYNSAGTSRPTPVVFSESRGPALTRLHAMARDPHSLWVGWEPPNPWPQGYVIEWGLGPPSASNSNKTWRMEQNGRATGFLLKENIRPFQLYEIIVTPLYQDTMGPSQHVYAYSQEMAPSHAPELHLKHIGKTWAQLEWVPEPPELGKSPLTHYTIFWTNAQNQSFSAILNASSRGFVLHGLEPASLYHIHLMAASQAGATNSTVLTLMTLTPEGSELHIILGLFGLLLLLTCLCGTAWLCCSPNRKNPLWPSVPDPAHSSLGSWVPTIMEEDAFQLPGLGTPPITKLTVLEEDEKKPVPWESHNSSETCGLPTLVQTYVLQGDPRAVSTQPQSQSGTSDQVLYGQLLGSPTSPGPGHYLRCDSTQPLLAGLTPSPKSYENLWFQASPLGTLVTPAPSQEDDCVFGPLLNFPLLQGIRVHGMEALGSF
Assay: Binding affinity to granulocyte colony stimulating factor receptor by SPR biosensor technique; call rule not given here

Row | Kd | Kd (read-out: Kd) | Structure (SMILES)
1 | Not Active |  | CC(C)CCOc1cc(CN(CCC(N)=O)c2cccc(CCC(=O)O)c2)cc(OCCCN)c1
2 |  | 20 µM | CC(C)CCOc1cc(OCCCN)cc(-c2ccc(CCC(=O)O)c(CCC(N)=O)c2)c1
3 |  | 47 µM | CC(C)CCOc1cc(CN(CCC(=O)O)c2cccc(CCC(N)=O)c2)cc(OCCCN)c1
4 | Not Active |  | CC(C)CCOc1cc(OCCCN)cc(-c2ccc(CCC(N)=O)c(CCC(=O)O)c2)c1
